Test results from patent US20100008965A1, “BIOCOMPATIBLE MEDICAL PRODUCTS HAVING ENHANCED ANTI-THROMBOGENIC PROPERTIES” (priority 2008, published 2010).

Tested on: HCAEC
Experiment: HCAEC retention under unidirectional fluid flow
Type: cell-based, human
Settings: 15 dyne/cm^2, thirty minutes
Method: In addition to the above, 75×38×1 mm glass microscope slides (Fisher Scientific Research, Pittsburgh, Pa.) were sterilized and coated overnight with human plasma fibronectin or CS-1 peptide at 5 μg/cm^2, or with PBS only. Slides were incubated for one hour at room temperature with a 0.01% (w/v) sterile-filtered BSA solution. HCAEC or HUVEC were seeded in basal medium on slides at 1.85×10^4 cells/cm^2 and permitted to adhere for eight hours under static conditions at 37° C. Fluid flow was performed using parallel plate flow chambers connected to fluid flow loops, as described in Pavalko et al., Fluid shear stress inhibits TNF-alpha-induced apoptosis in osteoblasts: a role for fluid shear stress-induced activation of PI3-kinase and inhibition of caspase-3. J Cell Phys 194, 194, 2002. Briefly, endothelial cell-seeded slides were secured within flow chambers and connected to fluid flow loops. All flows were performed in a 37° C. environment with serum-free culture medium that was continually bathed in a 5% CO2 atmosphere. […] Fluorescence micrographs were captured as described above. […] Nuclei were counted from five equally distributed visual fields per slide and pooled together for each substrate condition. Data was calculated as percent (%) cell retention, where % retention=[(average nuclei count)flow÷(average nuclei count)static]×100.

## CS-1: full-length 25 amino acid polypeptide, first 25 amino acid sequence of the fibronectin type IIICS domain (DELPQLVTLPHPNLHGPEILDVPST; Homo sapien)
p<0.05
  HCAEC percent retention versus non-ECM-coated control substrate: statistically greater
p=0.9
  HCAEC percent retention versus fibronectin substrate: not statistically different
